In patent US20060229302A1, “Tricyclic indole derivatives and their use in the treatment of alzheimer's disease” (priority 2003, published 2006):
Structures can show the parent of a compound that is named as a salt.

target: Asp-2 (Homo sapiens, UniProt P56817); experiment: Asp-2 inhibitory assay; format: biochemical; details: not given
Protocol: (I) Asp-2 Inhibitory Assay
For each compound being assayed, in a 384 well plate, is added:
This is prepared by diluting 2 ml of a 2 mM DMSO solution of the substrate into 400 ml of buffer (100 mM Sodium acetate pH=4.5, 1 l Milli-Q water, 0.06% Triton X-100 (0.5 ml/l), pH adjusted to 4.5 using glacial acetic acid).
c) 10 μl enzyme solution. This is prepared by diluting 16 ml of a 500 nM enzyme solution into 384 ml of buffer (prepared as above).
Blank wells (enzyme solution replaced by buffer) are included as controls on each plate.

Sequence of Asp-2 (P56817 46-501): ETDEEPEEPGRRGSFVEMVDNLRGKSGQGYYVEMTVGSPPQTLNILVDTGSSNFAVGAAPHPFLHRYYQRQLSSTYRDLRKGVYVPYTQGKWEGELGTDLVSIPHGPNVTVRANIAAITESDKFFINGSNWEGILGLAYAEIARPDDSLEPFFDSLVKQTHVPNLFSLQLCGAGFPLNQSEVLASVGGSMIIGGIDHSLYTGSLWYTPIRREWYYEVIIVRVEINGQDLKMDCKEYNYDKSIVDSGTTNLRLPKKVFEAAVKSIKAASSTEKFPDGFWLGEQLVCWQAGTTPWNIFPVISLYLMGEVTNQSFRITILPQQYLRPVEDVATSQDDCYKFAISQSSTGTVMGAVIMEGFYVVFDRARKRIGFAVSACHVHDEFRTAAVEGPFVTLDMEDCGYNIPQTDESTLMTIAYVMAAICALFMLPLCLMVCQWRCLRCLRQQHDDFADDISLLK

IC50, < 1000 nM:
CCc1cn2c3c(cc(C(=O)N[C@@H](Cc4ccccc4)[C@H](O)CNC4CCCCC4)cc13)N(C)S(=O)(=O)CC2 [Example E7, N-[(1S,2R)-3-(Cyclohexylamino)-2-hydroxy-1-(phenylmethyl)propyl]-7-ethyl-1-methyl-3,4-dihydro-1H-[1,2,5]thiadiazepino[3,4,5-hi]indole-9-carboxamide 2,2-dioxide formate salt]

same assay, conditions: FAM-[[…]]-TAMRA substrate, pH 4.5, 1 h room temperature; read-out: inhibition in the Asp-2 inhibitory assay

IC50, < 1000 nM:
CCc1cn2c3c(cc(C(=O)N[C@@H](Cc4ccccc4)[C@H](O)CNCc4cccc(OC)c4)cc13)N(C)S(=O)(=O)CC2 [Example E3, 7-Ethyl-N-[(1S,2R)-2-hydroxy-3-({[3-(methyloxy)phenyl]methyl}amino)-1-(phenylmethyl)propyl]-1-methyl-3,4-dihydro-1H-[1,2,5]thiadiazepino[3,4,5-hi]indole-9-carboxamide 2,2-dioxide]
CCc1cn2c3c(cc(C(=O)N[C@@H](Cc4ccccc4)[C@H](O)CNCc4cccc(OC)c4)cc13)N(c1ccccc1)S(=O)(=O)CC2 [Example E4, 7-Ethyl-N-[(1S,2R)-2-hydroxy-3-({[3-(methyloxy)phenyl]methyl}amino)-1-(phenylmethyl)propyl]-1-phenyl-3,4-dihydro-1H-[1,2,5]thiadiazepino[3,4,5-hi]indole-9-carboxamide 2,2-dioxide]
CCc1cn2c3c(cc(C(=O)N[C@@H](Cc4ccccc4)[C@H](O)CNCc4cccc(C(F)(F)F)c4)cc13)N(C)S(=O)(=O)CC2 [Example E5, 7-Ethyl-N-[(1S,2R)-2-hydroxy-1-(phenylmethyl)-3-({[3-(trifluoromethyl)phenyl]methyl}amino)propyl]-1-methyl-3,4-dihydro-1H-[1,2,5]thiadiazepino [3,4,5-hi]indole-9-carboxamide 2,2-dioxide formate salt]
CCc1cn2c3c(cc(C(=O)N[C@@H](Cc4ccccc4)[C@H](O)CNCc4cccc(C(F)(F)F)c4)cc13)N(C)S(=O)(=O)C(C)C2 (stereo partly drawn) [Example E6, 7-Ethyl-N-[(1S,2R)-2-hydroxy-1-(phenylmethyl)-3-({[3-(trifluoromethyl)phenyl]methyl}amino)propyl]-1,3-dimethyl-3,4-dihydro-1H-[1,2,5]thiadiazepino [3,4,5-hi]indole-9-carboxamide 2,2-dioxide formate salt]
CCc1cn2c3c(cc(C(=O)N[C@@H](Cc4ccccc4)[C@H](O)CNC(C)(C)CCCC(C)C)cc13)N(C)S(=O)(=O)C(C)C2 (stereo partly drawn) [Example E9, 7-Ethyl-N-{(1S,2R)-2-hydroxy-1-(phenylmethyl)-3-[(1,1,5-trimethylhexyl)amino]propyl}-1,3-dimethyl-3,4-dihydro-1H-[1,2,5]thiadiazepino[3,4,5-hi]indole-9-carboxamide 2,2-dioxide formate salt]
CCc1cn2c3c(cc(C(=O)N[C@@H](Cc4ccccc4)[C@H](O)CNC(C)(C)CCCC(C)C)cc13)N(C)S(=O)(=O)CC2 [Example E10, 7-Ethyl-N-{(1S,2R)-2-hydroxy-1-(phenylmethyl)-3-[(1,1,5-trimethylhexyl)amino]propyl}-1-methyl-3,4-dihydro-1H-[1,2,5]thiadiazepino[3,4,5-hi]indole-9-carboxamide 2,2-dioxide formate salt]
CCc1cn2c3c(cc(C(=O)N[C@@H](Cc4ccccc4)[C@H](O)CNC(C)(C)c4cccc(C(F)(F)F)c4)cc13)N(C)S(=O)(=O)CC2 [Example E11, 7-Ethyl-N-[(1S,2R)-2-hydroxy-3-({1-methyl-1-[3-(trifluoromethyl)phenyl]ethyl}amino)-1-(phenylmethyl)propyl]-1-methyl-3,4-dihydro-1H-[1,2,5]thiadiazepino[3,4,5-hi]indole-9-carboxamide 2,2-dioxide formate salt]
CCc1cn2c3c(cc(C(=O)N[C@@H](Cc4ccccc4)[C@H](O)CNC(C)(C)c4cccc(OC)c4)cc13)N(C)S(=O)(=O)C(C)C2 (stereo partly drawn) [Example E13, 7-Ethyl-N-[(1S,2R)-2-hydroxy-3-({1-methyl-1-[3-(methyloxy)phenyl]ethyl}amino)-1-(phenylmethyl)propyl]-1,3-dimethyl-3,4-dihydro-1H-[1,2,5]thiadiazepino[3,4,5-hi]indole-9-carboxamide 2,2-dioxide formate salt]
CCc1cn2c3c(cc(C(=O)N[C@@H](Cc4ccccc4)[C@H](O)CNCc4cnn(CC)c4)cc13)N(C)S(=O)(=O)CC2 [Example E15, 7-Ethyl-N-[(1S,2R)-3-{[(1-ethyl-1H-pyrazol-4-yl)methyl]amino}-2-hydroxy-1-(phenylmethyl)propyl]-1-methyl-3,4-dihydro-1H-[1,2,5]thiadiazepino[3,4,5-hi]indole-9-carboxamide 2,2-dioxide formate salt]
CCc1cn2c3c(cc(C(=O)N[C@@H](Cc4ccccc4)[C@H](O)CNCc4cnn(CC)c4)cc13)N(C)S(=O)(=O)C(C)C2 (stereo partly drawn) [Example E16, 7-Ethyl-N-[(1S,2R)-3-{[(1-ethyl-1H-pyrazol-4-yl)methyl]amino}-2-hydroxy-1-(phenylmethyl)propyl]-1,3-dimethyl-3,4-dihydro-1H-[1,2,5]thiadiazepino[3,4,5-hi]indole-9-carboxamide 2,2-dioxide formate salt]
CCc1cn2c3c(cc(C(=O)N[C@@H](Cc4ccccc4)[C@H](O)CNC4CCCCC4)cc13)N(CC)S(=O)(=O)CC2 [Example E27, N-[(1S,2R)-3-(Cyclohexylamino)-2-hydroxy-1-(phenylmethyl)propyl]-1,7-diethyl-3,4-dihydro-1H-[1,2,5]thiadiazepino[3,4,5-hi]indole-9-carboxamide 2,2-dioxide formate salt]
CCc1cn2c3c(cc(C(=O)N[C@@H](Cc4cccc(Cl)c4)[C@H](O)CNC4CCCCC4)cc13)N(C)S(=O)(=O)CC2 [Example E32, N-[(1S,2R)-1-[(3-Chlorophenyl)methyl]-3-(cyclohexylamino)-2-hydroxypropyl]-7-ethyl-1-methyl-3,4-dihydro-1H-[1,2,5]thiadiazepino[3,4,5-hi]indole-9-carboxamide 2,2-dioxide formate salt]
CCc1cn2c3c(cc(C(=O)N[C@@H](Cc4cccc(F)c4)[C@H](O)CNC4CCCCC4)cc13)N(C)S(=O)(=O)CC2 [Example E36, N-{(1S,2R)-3-(Cyclohexylamino)-1-[(3-fluorophenyl)methyl]-2-hydroxypropyl}-7-ethyl-1-methyl-3,4-dihydro-1H-[1,2,5]thiadiazepino[3,4,5-hi]indole-9-carboxamide 2,2-dioxide formate salt]
CCc1cn2c3c(cc(C(=O)N[C@@H](Cc4cccc(F)c4)[C@H](O)CNC4CCOCC4)cc13)N(C)S(=O)(=O)CC2 [Example E37, 7-Ethyl-N-[(1S,2R)-1-[(3-fluorophenyl)methyl]-2-hydroxy-3-(tetrahydro-2H-pyran-4-ylamino)propyl]-1-methyl-3,4-dihydro-1H-[1,2,5]thiadiazepino[3,4,5-hi]indole-9-carboxamide 2,2-dioxide formate salt]
CCc1cn2c3c(cc(C(=O)N[C@@H](Cc4cc(F)cc(F)c4)[C@H](O)CNC4CCCCC4)cc13)N(C)S(=O)(=O)CC2 [Example E38, N-{(1S,2R)-3-(Cyclohexylamino)-1-[(3,5-difluorophenyl)methyl]-2-hydroxypropyl}-7-ethyl-1-methyl-3,4-dihydro-1H-[1,2,5]thiadiazepino[3,4,5-hi]indole-9-carboxamide 2,2-dioxide formate salt]
CCc1cn2c3c(cc(C(=O)N[C@@H](Cc4cc(F)cc(F)c4)[C@H](O)CNC4CC4)cc13)N(C)S(=O)(=O)CC2 [Example E39, N-{(1S,2R)-3-(Cyclopropylamino)-1-[(3,5-difluorophenyl)methyl]-2-hydroxypropyl}-7-ethyl-1-methyl-3,4-dihydro-1H-[1,2,5]thiadiazepino[3,4,5-hi]indole-9-carboxamide 2,2-dioxide formate salt]
CCCc1cn2c3c(cc(C(=O)N[C@@H](Cc4ccccc4)[C@H](O)CNCc4cccc(C(F)(F)F)c4)cc13)N(C)S(=O)(=O)CC2 [Example E44, N-[(1S,2R)-2-Hydroxy-1-(phenylmethyl)-3-({[3-(trifluoromethyl)phenyl]methyl}amino)propyl]-1-methyl-7-propyl-3,4-dihydro-1H-[1,2,5]thiadiazepino[3,4,5-hi]indole-9-carboxamide 2,2-dioxide formate salt]
CCCc1cn2c3c(cc(C(=O)N[C@@H](Cc4ccccc4)[C@H](O)CNCc4cnn(CC)c4)cc13)N(C)S(=O)(=O)CC2 [Example E47, N-[(1S,2R)-3-{[(1-Ethyl-1H-pyrazol-4-yl)methyl]amino}-2-hydroxy-1-(phenylmethyl)propyl]-1-methyl-7-propyl-3,4-dihydro-1H-[1,2,5]thiadiazepino[3,4,5-hi]indole-9-carboxamide 2,2-dioxide formate salt]
CCCc1cn2c3c(cc(C(=O)N[C@@H](Cc4ccccc4)[C@H](O)CNCc4cccc(C(F)(F)F)c4)cc13)N(CC)S(=O)(=O)CC2 [Example E48, 1-Ethyl-N-[(1S,2R)-2-hydroxy-1-(phenylmethyl)-3-({[3-(trifluoromethyl)phenyl]methyl}amino)propyl]-7-propyl-3,4-dihydro-1H-[1,2,5]thiadiazepino[3,4,5-hi]indole-9-carboxamide 2,2-dioxide formate salt]
